Laboratory results reported in patent publication EP4268819A1 (priority 2022, dated 2023).
pIC50: −log10 of the molar value. Like-named read-outs stand apart in the source and are kept apart here.

Key:
DENV = details: against DENV; reported, with a low therapeutic index; cited from earlier work
ZIKA = details: against ZIKA; reported, with a low therapeutic index; cited from earlier work
Calu-3 cells [1] = test: Toxicity by staining of the nuclei (Hoechst+ cell count) in the icSARS-CoV-2-mNG IC50 experiment; details: Calu3 cells in the icSARS-CoV-2-mNG IC50 experiment
icSARS-CoV-2-mNG [2] = assay type: cell-based, SARS-CoV-2
Huh7.5 cells = test: CC50 calculation, MTT assay, Huh7.5; assay type: cell-based; details: 72h, 4320 min
Procedure: (§1) The cells were treated with drug candidates at the indicated concentrations. Negative control (non-treated), DMSO control and positive control (100% DMSO treated) were added, and plates were then stored at 37 °C, 5 % CO2 for 72h. The old cell media was then discarded, and cells were incubated for 3 h at 37°C, 5% CO2 with 90 µl phenolred-free DMEM-Media and 10 µl of a 5 mg/ml MTT solution per well (#ab146345 Abcam). Afterwards Media was discarded carefully, and Formazan crystals were dissolved on a shaker with 100 µl MTT buffer/well (0.04 N HCI in isopropanol) for 10 minutes. Absorption levels at 570 nm and 650 nm wavelength were measured by Berthold TriStar2 S Multimode Reader and values were normalized to non-treated cells. CC50 was calculated as the half-maximal cytotoxic dose via GraphPad Prism 9 using four-parameter nonlinear regression.
(§2) Absorption levels at 570 nm and 650 nm wavelength were measured and values were normalized to non-treated cells. CC50 was calculated as the half-maximal cytotoxic dose via GraphPad Prism 9 using four-parameter nonlinear regression.
(§3) They now expanded the tests and used MTT assay, which is a procedure used to calculate the redox activity at the mitochondrial membrane of cells and the commercial cell titer glow assay (Promega) to measure cellular ATP. Cell lines tested were the ones used for our antiviral assay, i.e. Calu-3, Caco-2 and Huh7.5 cells.

in vitro [3] = assay type: cell-based; details: human
Procedure: The old cell media was then discarded, and cells were washed with PBS. 35 µl DMEM-Media and 35 µl CellTiterGlow® reagent (#G7571, Promega) were added and incubated for 2 minutes on an orbital shaker protected from light. Afterwards plates were incubated for 10 minutes without shaking to stabilize the luminescent signal. 50 µl of the supernatant was transferred to a white 96 well measure plate and measured by Berthold TriStar2 S Multimode Reader. The background signal was determined by the luminescent signal of the positive control subtracted from the values used for analysis. The data was then normalized to the non-treated control. CC50 was calculated as the half-maximal cytotoxic dose via GraphPad Prism 9 using four-parameter nonlinear regression.
Luminescent signals were measured by Berthold TriStar2 S Multimode Reader. The data was then normalized to the non-treated control. CC50 was calculated as the half-maximal cytotoxic dose via GraphPad Prism 9 using four-parameter nonlinear regression.

[4] = tested on: DENV type 2 reporter virus
Calu-3 cells [5] = tested on: Calu-3 cells
Procedure: (§4) Calu-3 (40.000/well), Huh7.5 (10.000/well) and CaCo2 (10.000/well) cells were seeded in 96-well plates in DMEM-Media. The cells were treated with the drug compounds at the indicated concentrations, negative control (non-treated), DMSO control and positive control (50% DMSO treated) were added, and plates were then stored in the IncuCyte® at 37 °C, 5 % CO2 for 72h measuring every 3 hours cell confluency via phase channel with 10x objective. For Analysis IncuCyte® S3 Software was used.
(§5) Plates were then stored in the IncuCyte® measuring every 3 hours cell confluency.

icSARS-CoV-2-mNG [6] = test: IC50 calculation with icSARS-CoV-2-mNG in Calu-3 cells (mNG+/Hoechst+ infection rate); details: ic-SARS-CoV-2-mNG in Calu-3 cells; for Therapeutic range: CC50/IC50 (CTG): CC50 by CTG; for Therapeutic range: CC50/IC50 (IncuCyte): CC50 by IncuCyte; for Therapeutic range: CC50/IC50 (MTT): CC50 by MTT
[7] = CC50 calculation, MTT assay, Calu-3; assay type: cell-based; details: human, Calu-3 cells
Procedure: as §1, §2, §3

[8] = CC50 calculation, MTT assay, Huh7.5; assay type: cell-based; details: human, Huh7.5 cells
Procedure: as §1, §2, §3

in vitro [9] = assay type: cell-based; details: human, caco-2; IncuCyte; cell line not specified; read-out: level of growth inhibition (live-cell imaging, growth curves)
Description: For Analysis IncuCyte® S3 Software was used.

in vitro [10] = details: human, calu-3 cells, CC50 (IncuCyte), confluency every 3 hours for 72h
Procedure: as §4, §5

[11] = tested on: DENV type 2 reporter virus; test: microbe, parasite or virus in culture; details: Dengue virus, Huh7.5, 24 h
[12] = Cell viability via live cell imaging (IncuCyte), Huh7.5; details: human, huh7.5 cells
Procedure: as §4, §5

CaCo2 and Calu3 cells = details: screening at 50, 10, 2 µM
[13] = Calu3 and Caco2 cells, 24h pre-treatment, […], 50, 10, 2 µM (Atpenin A5 10, 2, 0.4 µM)

For `CN(C)C(=N)N=C(N)N` [Metformin], the antiviral activity (DENV) is given as “mM range”, the antiviral activity (ZIKA) is given as “mM range” and the “toxicity (staining of the nuclei, cell count)” value (Calu-3 cells [1]) is given as “without any cytotoxicity”.
With `[H]/N=C(/N)N/C(=N/[H])NCCc1ccccc1` [Phenformin] the “SARS-CoV-2 infection of the cell lines (infection rate mNG+/Hoechst+ cells)” value (“SARS-CoV-2 infection of the cell lines” below) (icSARS-CoV-2-mNG [2]) was “inhibited SARS-CoV-2 infection of the cell lines in a dose-dependent manner”, the CC50 (Huh7.5 cells) was 61.2 µM and the CC50 at 72 h (in vitro [3]; caco-2) was over 2 µM. For the same compound, the CC50 at 72 h (in vitro [3]; calu-3 cells) was over 2 µM, the CC50 at 72 h (in vitro [3]; huh7.5 cells) was over 2 µM and the “Therapeutic range: CC50/IC50 (CTG)” value ([4]; human, huh7.5 cells) was “CTG: 109.2”. For the same compound, the “Therapeutic range: CC50/IC50 (IncuCyte)” value ([4]; human, huh7.5 cells) was “IncuCyte: 59.9”, the “Therapeutic range: CC50/IC50 (MTT)” value ([4]; human, huh7.5 cells) was “MTT: 3.3” and the CC50 (Calu-3 cells [5]; human, 72h) was 1500 µM. For the same compound, the “Therapeutic range: CC50/IC50 (CTG)” value (icSARS-CoV-2-mNG [6]) was “CTG: 1306.4”, the “Therapeutic range: CC50/IC50 (IncuCyte)” value (icSARS-CoV-2-mNG [6]) was “IncuCyte: 867.1” and the “Therapeutic range: CC50/IC50 (MTT)” value (icSARS-CoV-2-mNG [6]) was “MTT: 876.3”. The “toxicity (staining of the nuclei, cell count)” value (Calu-3 cells [1]) was “without any toxicity”.
For `O[C@H]1[C@H](O)[C@@H](O)[C@H](O)[C@@H](O)[C@@H]1O` [Scyllo-Inositol, Scyllo-inositol], the “SARS-CoV-2 infection of the cell lines” value (icSARS-CoV-2-mNG [2]; [13]) was “did not show any activity”.
For `COc1[nH]c(=O)c(C(=O)[C@@H](C)C[C@H](C)[C@@H](Cl)CCl)c(O)c1OC` [Atpenin A5, atpenin A5], the “SARS-CoV-2 infection of the cell lines” value (icSARS-CoV-2-mNG [2]; [13]) was “inhibited SARS-CoV-2 infection of the cell lines in a dose-dependent manner”, the CC50 at 72 h [7] was 1.2 µM and the CC50 at 72 h [8] was 101 µM. The CC50 at 72 h (in vitro [3]; Calu-3 cells, 72h, read-out: CC50 (CTG)) was 0.86 µM, the CC50 at 72 h (in vitro [3]; Huh7.5 cells, 72h, read-out: CC50 (CTG)) was 62 µM and the CC50 at 72 h (in vitro [9]) was over 60 µM. For the same compound, the “Therapeutic range: CC50/IC50 (CTG)” value ([4]; Dengue Virus in Huh7.5 cells, CC50 by CTG) was “CTG: 229.5”, the “Therapeutic range: CC50/IC50 (IncuCyte)” value ([4]; Dengue Virus in Huh7.5 cells, CC50 by IncuCyte) was “IncuCyte: 240.7” and the “Therapeutic range: CC50/IC50 (MTT)” value ([4]; Dengue Virus in Huh7.5 cells, CC50 by MTT) was “MTT: 375.2”. The CC50 (Calu-3 cells [5]; read-out: CC50 (IncuCyte), confluency every 3 hours for 72h, 4320 min) was over 80 µM, the CC50 at 72 h (in vitro [10]) was over 160 µM and the pIC50 [11] was 6.57. For the same compound, the CC50 at 72 h [12] was 65 µM, the “Therapeutic range: CC50/IC50 (CTG)” value (icSARS-CoV-2-mNG [6]) was “CTG: 1.72” and the “Therapeutic range: CC50/IC50 (IncuCyte)” value (icSARS-CoV-2-mNG [6]) was “IncuCyte: > 320”. The “Therapeutic range: CC50/IC50 (MTT)” value (icSARS-CoV-2-mNG [6]) was “MTT: 24”.
In the case of `CC(C)Cc1nn(C)c(=O)c2c(SCCCO)n(Cc3cccc4ccccc34)cc12` [SR13800], the “toxicity (cell viability by Hoechst staining of the nucleus)” value (CaCo2 and Calu3 cells) was “toxic”.
